# Assay results: patent publication US7563882B2, “Polynucleotides encoding antibodies that bind to the C35 polypeptide” (University of Rochester, priority 2002, dated 2009)
# Tests used:
# [1] = tested on: EBV-B target cells; assay: C35 peptide mediated T cell lysis of peptide pulsed EBV-B cells (Table 10); type: cell-based, human; conditions: for % Lysis EBV-B cell Target: target pulsed with peptide
# [2] = tested on: PCl-13 K104-V113-Ser; assay: 51Cr release, CD8+ cells stimulated with K104-V113 peptides (Example 17); type: cell-based, human; conditions: CD8+ cells of donor stimulated with peptide pulsed DCs; for Raw Chromium Values: Table 13, target PCl-13 K104-V113-Ser; for Percentage of Target Cells Lysed: Table 14, target Pcl-13 K104-V113-Ser
# [3] = tested on: 21NT; assay: as above; type: cell-based, human; conditions: target 21NT, CD8+ cells of donor stimulated with peptide pulsed DCs; for Raw Chromium Values: Table 13; for Percentage of Target Cells Lysed: Table 14
# [4] = tested on: Mel F002; assay: as above; type: cell-based, human; conditions: for Raw Chromium Values: Table 15 (repeat), target Mel F002, effector to target 30:1, CD8+ cells 12 days in IL-2 after fourth stimulation; for Percentage of Target Cells Lysed: Table 16 (repeat), effector to target 30:1, CD8+ cells 12 days in IL-2 after fourth stimulation
# [5] = tested on: Mel 1359; assay: as above; type: cell-based, human; conditions: target Mel 1359, effector to target 30:1, CD8+ cells 12 days in IL-2 after fourth stimulation; for Raw Chromium Values: Table 15 (repeat); for Percentage of Target Cells Lysed: Table 16 (repeat)
# [6] = tested on: K562; assay: as above; type: cell-based, human; conditions: for Raw Chromium Values: target K562
# [7] = tested on: 21NT.A2-Ser; assay: as above; type: cell-based, human; conditions: target 21NT.A2-Ser, effector to target 30:1, CD8+ cells 12 days in IL-2 after fourth stimulation; for Raw Chromium Values: Table 15 (repeat); for Percentage of Target Cells Lysed: Table 16 (repeat)
# [8] = tested on: Mel 501; assay: as above; type: cell-based, human; conditions: target Mel 501, effector to target 30:1, CD8+ cells 12 days in IL-2 after fourth stimulation; for Raw Chromium Values: Table 15 (repeat); for Percentage of Target Cells Lysed: Table 16 (repeat)
# [9] = tested on: H16.A2; assay: as above; type: cell-based, human; conditions: for Raw Chromium Values: target H16.A2
# [10] = tested on: PCl-13; assay: as above; type: cell-based, human; conditions: target PCl-13, CD8+ cells of donor stimulated with peptide pulsed DCs; for Raw Chromium Values: Table 13; for Percentage of Target Cells Lysed: Table 14
# [11] = tested on: Mel 1700; assay: as above; type: cell-based, human; conditions: target Mel 1700, effector to target 30:1, CD8+ cells 12 days in IL-2 after fourth stimulation; for Raw Chromium Values: Table 15 (repeat); for Percentage of Target Cells Lysed: Table 16 (repeat)
# [12] = tested on: 21NT.A2; assay: as above; type: cell-based, human; conditions: target 21NT.A2
# [13] = tested on: B/C.N cells; assay: 51Cr release (CML), sensitization of B/C.N to lysis by tumor specific CTL; type: cell-based, mouse; conditions: for sensitization of B/C.N cells to lysis by tumor-specific CTL: 4 hours; for peptide concentration to sensitize targets to lysis by CTL: B/C.N targets
# [14] = T cell clones from donor with A3, A66, B8 and B41 HLA haplotypes
# [15] = T cell clone #72, donor (A2, A3; B18, B44)
# [16] = T cell clone #75, donor (A2, A3; B18, B44)
# [17] = T cell clone #104, donor (A2, A3; B18, B44)
# [18] = T cells from donor with A2, A3, B18, B44 HLA haplotypes raised against 9mer 22-30
# [19] = Table 13, CD8+ cells of donor stimulated with peptide pulsed DCs
# [20] = Table 14, CD8+ cells of donor stimulated with peptide pulsed DCs
# [21] = Table 15 (repeat), effector to target 30:1, CD8+ cells 12 days in IL-2 after fourth stimulation
# [22] = Table 16 (repeat), effector to target 30:1, CD8+ cells 12 days in IL-2 after fourth stimulation
Substance,Raw Chromium Values [2],Percentage of Target Cells Lysed [2],Raw Chromium Values [3],Percentage of Target Cells Lysed [3],Raw Chromium Values [4],Percentage of Target Cells Lysed [4],Raw Chromium Values [5],Percentage of Target Cells Lysed [5],"Raw Chromium Values [6, 19]","Percentage of Target Cells Lysed [6, 20]","Raw Chromium Values [6, 21]","Percentage of Target Cells Lysed [6, 22]",Raw Chromium Values [7],Percentage of Target Cells Lysed [7],Raw Chromium Values [8],Percentage of Target Cells Lysed [8],"Raw Chromium Values [9, 19]","Percentage of Target Cells Lysed [9, 20]","Raw Chromium Values [9, 21]","Percentage of Target Cells Lysed [9, 22]",further results
GGFPYEKDL [peptide 81-89],,,,,,,,,,,,,,,,,,,,,"lytic activity on EBV-B target cells pulsed with peptide [1, 14]: 40.3%"
GVRIVVEYC [peptide 22-30],,,,,,,,,,,,,,,,,,,,,"% Lysis EBV-B cell Target [1, 15]: 72.8%; % Lysis EBV-B cell Target [1, 16]: 56.8%; % Lysis EBV-B cell Target [1, 17]: 100.3%; lytic activity on EBV-B target cells pulsed with peptide [1, 18]: very active"
IEINGQLVF [peptide 67-75],,,,,,,,,,,,,,,,,,,,,"lytic activity on EBV-B target cells pulsed with peptide [1, 14]: 54.9%"
K104-V113-cys-cys: K104-V113 peptide fragment of C35 containing a cysteinylated cysteine at amino acid position 112,1772,35.3%,171,−0.1%,1713,11.2%,2299,2.5%,287,0.9%,1713,16.2%,4474,51.9%,4474,21.2%,440,0.2%,1024,5.8%,"Raw Chromium Values [10]: 486; Percentage of Target Cells Lysed [10]: −1.7%; Raw Chromium Values [11]: 1857; Percentage of Target Cells Lysed [11]: 7.2%; Raw Chromium Values [12, 19]: 1329; Percentage of Target Cells Lysed [12, 20]: 20.1%; Raw Chromium Values [12, 21]: 2337; Percentage of Target Cells Lysed [12, 22]: 19.1%"
KITNSRPPAV (synthetic analog of human C35 epitope) [K104-V113-Ala],746,6.0%,155,−0.7%,815,7.6%,3050,9.9%,246,−0.9%,815,2.9%,2423,22.5%,2423,11.1%,479,0.9%,829,2.0%,"Raw Chromium Values [10]: 468; Percentage of Target Cells Lysed [10]: −2.2%; Raw Chromium Values [11]: 1543; Percentage of Target Cells Lysed [11]: 2.4%; Raw Chromium Values [12, 19]: 763; Percentage of Target Cells Lysed [12, 20]: 7.3%; Raw Chromium Values [12, 21]: 1365; Percentage of Target Cells Lysed [12, 22]: 6.4%"
KITNSRPPCV [K104-V113],1403,24.8%,137,−1.5%,1156,15.7%,2758,7.0%,311,2.0%,1156,8.0%,3729,41.5%,3729,36.0%,483,0.9%,948,4.3%,"Raw Chromium Values [10]: 804; Percentage of Target Cells Lysed [10]: 7.6%; Raw Chromium Values [11]: 1964; Percentage of Target Cells Lysed [11]: 8.9%; Raw Chromium Values [12, 19]: 1429; Percentage of Target Cells Lysed [12, 20]: 22.4%; Raw Chromium Values [12, 21]: 2753; Percentage of Target Cells Lysed [12, 22]: 24.6%"
KITNSRPPSV (synthetic analog of human C35 epitope) [K104-V113-Ser],2588,58.7%,185,0.5%,974,15.1%,2357,3.0%,323,2.5%,974,5.3%,4762,56.0%,4762,45.3%,584,2.6%,1018,5.6%,"Raw Chromium Values [10]: 581; Percentage of Target Cells Lysed [10]: 1.1%; Raw Chromium Values [11]: 2951; Percentage of Target Cells Lysed [11]: 24.1%; Raw Chromium Values [12, 19]: 3228; Percentage of Target Cells Lysed [12, 20]: 63.2%; Raw Chromium Values [12, 21]: 4957; Percentage of Target Cells Lysed [12, 22]: 53.4%"
"L345-54 (I54): peptide of ribosomal protein L3, positions 45-54 with Ile 54 (AFLGYKAGMI)",,,,,,,,,,,,,,,,,,,,,sensitization of B/C.N cells to lysis by tumor-specific CTL [13]: did not
"L348-56 (I54): peptide of ribosomal protein L3, positions 48-56 with Ile 54; target epitope of tumor-specific CTL (GYKAGMIHI)",,,,,,,,,,,,,,,,,,,,,sensitization of B/C.N cells to lysis by tumor-specific CTL [13]: sensitized B/C.N to lysis; peptide concentration to sensitize targets to lysis by CTL [13]: ≤ 0.01 µM
L348-56 (T54): wild type ribosomal protein L3 peptide 48-56 with Thr 54 (GYKAGMTHI) [reference compound],,,,,,,,,,,,,,,,,,,,,sensitization of B/C.N cells to lysis by tumor-specific CTL [13]: did not; peptide concentration to sensitize targets to lysis by CTL [13]: > 100 µM
QLVFSKLENGGFPYE [peptide 72-86],,,,,,,,,,,,,,,,,,,,,"% Lysis EBV-B cell Target ([1]; T cell clone #46, donor (A2, A3; B18, B44)): 78.5%; lytic activity on EBV-B cells pulsed with peptide ([1]; T cell clones from donor with A2, A3, B18, B44 HLA haplotypes): 78.5%"
peptide 17-31: 15mer corresponding to amino acids 17-31 of C35 (SEQ ID NO:2) (VEPGSGVRIVVEYCE; listed as Homo sapiens),,,,,,,,,,,,,,,,,,,,,"% Lysis EBV-B cell Target [1, 15]: 0.5%; % Lysis EBV-B cell Target [1, 16]: 1.2%; % Lysis EBV-B cell Target [1, 17]: 6.4%; lytic activity on EBV-B target cells pulsed with peptide [1, 18]: minimal lysis"
